EPA's ToxValDB 9.5 (doi:10.2903/j.efsa.2018.5146)
In brackets after ≈: the same amount, converted by molar mass.

Key:
Apis mellifera = settings: acute, mortality
Tagia sp. = settings: chronic/long-term; reproduction
Rattus norvegicus = settings: acute; oral; mortality
Folsomia candida = settings: chronic/long-term; reproduction
Mus musculus = settings: organ weight
Oncorhynchus mykiss = settings: acute; duration: 96 hours; mortality
[1] = chronic; duration: 133 days; other
Aphidius rhopalosiphi = test: LR50; higher = less toxic; settings: acute; mortality

## COc1ccnc(C(=O)N[C@H]2COC(=O)[C@H](Cc3ccccc3)[C@@H](OC(=O)C(C)C)[C@H](C)OC2=O)c1OCOC(=O)C(C)C [Fenpicoxamid]
Apis mellifera; dermal
  LD50: > 202 µg/piece
Apis mellifera; oral, unspecified
  LD50: > 303 µg/piece
Colinus virginianus; acute, oral, mortality
  LD50: > 2000 mg/kg-day
Colinus virginianus; reproduction developmental
  NOEC: 12.1 mg/kg-day
Tagia sp.
  NOEC: 9.93 mg/kg
Rattus norvegicus
  LD50: > 2000 mg/kg-day
Folsomia candida
  NOEC: 3.97 mg/kg
Mus musculus; chronic, duration: 18 months
  NOAEL: 5.27 mg/kg-day
Mus musculus; subchronic, duration: 90 days, oral
  NOAEL: 39.6 mg/kg-day
Oryctolagus sp.; chronic, New Zealand, no effects
  NOAEL: 495 mg/kg-day
Oryctolagus sp.; reproduction developmental, reproduction
  NOAEL: 177 mg/kg-day
Oncorhynchus mykiss
  LC50: 1.1 µg/mL (≈ 1.79 µM)
[1]
  NOEC: 0.0001 mg/L
Aphidius rhopalosiphi
  LR50: > 129 g/ha
